Data: patent EP4652843A1, “BIOPESTICIDE COMPOSITION, PROCEDURE OF OBTAIN THEREOF, AND METHOD FOR CONTROLLING AND TREATING BROAD SPECTRUM OF PESTS IN PLANTS” (Kimitec Biogroup S.L, priority 2024, dated 2025)
Several values for one entry are separate records, joined by “and”; a condition that tells them apart may be missing. Equal values may be shown once. Marks after values point to notes of the source that are not given here.

Columns and labels:
Bemisia tabaci = test: Contact mortality (Leaf Disc Method), solvent comparison, Bemisia tabaci; details: Group A: individual solvents, diluted at 0.3% (3cc/L) in water without formulation, Abbott's corrected
Experimental: (§1) The objective of this bioassay is to evaluate the effect of test items on the mortality of insect (Fam Tortricidae and Fam Gelechiidae) and other side pests as target in a short/medium-term (0-24 hours) by topical application. All trials were carried out on whole alive target. Four independent replicates of the whole setup were performed for each target as follow: (Figure 12) first of all, 10g/L agar-agar was prepared (1) and deposited in petri dish according to the target (2), after adding cut leaf disc around 4 cm diameter from healthy bean plants (3), fixing the plant material on the semi solid agar in the petri dish (4). Insect adults (from 3 to 15 according to the target) are setting on surface of leaf disc (5). Biopesticide composition was sprayed 0.1-02 ml per experimental unit (6), a total of 10 replicates for each treatment (biopesticide composition and positive control; commercial products based on anthranilic diamide and emamectin to recommend doses in the label) were used in each experiment and incubated and evaluated after 24 hours (7).
(§2) Insects and mites were considered dead if no movement was apparent after probing with the tip of a fine brush under stereoscopic magnifying glass. Mortality percentage was calculated in treatment and control groups. If the mortality in negative control is above 20% the test was discarded.
(§3) Means of %M were compared using a one-way analysis of variance (ANOVA, p<0.05) and LSD-test as a post hoc test to verify significant differences between single treatments using Statgraphics Centurion XVII software. When nonnormality in the data was detected, an additional Kruskal-Wallis test was conducted, and Box-and-Whisker Plot (Median Notch) was presented.
(§4) The different compositions were tested by trials that were carried out on different relevant insect pests and acari including: Tuta absoluta, Bemisia tabaci, Myzus persicae, Frankliniella occidentalis and Tetranychus urticae. The bioassay type used was contact mortality (Leaf Disc Method) described in the example 4.
(§5) The main treatments included in the comparison of efficacy are: Group A: Individual solvents: Benzyl alcohol, ethanol, isopropanol, and water were applied directly (purity as in the label) diluted at 0.3% (3cc/L) in water without formulation. Group B: Vegetable matrix extracts were extracted with different solvents such as benzyl alcohol, ethanol, isopropanol, and water in a blend of inert ingredients as follows: […]

Myzus persicae = test: Contact mortality (Leaf Disc Method), solvent comparison, Myzus persicae; details: Group A: individual solvents, diluted at 0.3% (3cc/L) in water without formulation, Abbott's corrected
Experimental: as §1, §2, §3, §4, §5

[1] = system: Frankliniella occidentalis; test: Contact mortality (Leaf Disc Method), solvent comparison, Frankliniella occidentalis; details: Group A: individual solvents, diluted at 0.3% (3cc/L) in water without formulation, Abbott's corrected
Experimental: as §1, §2, §3, §4, §5

Tuta absoluta [2] = test: Contact mortality (Leaf Disc Method), solvent comparison, Tuta absoluta; details: Group A: individual solvents, diluted at 0.3% (3cc/L) in water without formulation, Abbott's corrected
Experimental: as §1, §2, §3, §4, §5

Tetranychus urticae = test: Contact mortality (Leaf Disc Method), solvent comparison, Tetranychus urticae; details: Group A: individual solvents, diluted at 0.3% (3cc/L) in water without formulation, Abbott's corrected
Experimental: as §1, §2, §3, §4, §5

[3] = cited from earlier work
[4] = system: lepidoptera larvae (Grapholita molesta); test: Contact mortality (Leaf Disc Method), Grapholita molesta larvae; format: in vivo; details: dose 1.5 g/L; 24H after application; Abbott's corrected; mean of 4 repetitions
Experimental: (§6) All trials were carried out on whole alive target.
(§7) Mortality percentage was calculated in treatment and control groups.

[5] = system: lepidoptera larvae (Grapholita molesta); test: Antifeedant effects: settling inhibition, Grapholita molesta larvae; format: in vivo; details: dose 1.5 g/L; 24H after application
Experimental: The concept of antifeedant as a substance that acts on insect behaviour involves feeding reduction (FR) and settling inhibition (SI). In some cases, settling inhibition is considered as indirect repellent effect. […] Feeding reduction index (%FR) or settling inhibition index (%SI) was calculated according to the following formula: % FR or SI = (1−((T)/(C)))∗100 [formula] where: T= Settling of treated plants; C= Setting of control plants. Table 3. In vitro efficacy against lepidoptera larvae (Grapholita molesta)

[6] = system: lepidoptera adults (Grapholita molesta); test: Contact mortality (Leaf Disc Method), Grapholita molesta adults; format: in vivo; details: dose 1.5 g/L; 24H after application; Abbott's corrected
Experimental: as §6, §7

[7] = system: lepidoptera adults (Cydia pomonella); test: Contact mortality (Leaf Disc Method), Cydia pomonella adults; format: in vivo; details: dose 1.5 g/L; 24H after application; Abbott's corrected
Experimental: as §6, §7

[8] = system: lepidoptera larvae (Tuta absoluta); test: Contact mortality (Leaf Disc Method), Tuta absoluta larvae; format: in vivo; details: dose 0.5 kg/ha; 24H after application; Abbott's corrected; mean of 3 repetitions
Experimental: as §6, §7

[9] = system: lepidoptera larvae (Tuta absoluta); test: Antifeedant effects: feeding reduction (choice assays), Tuta absoluta larvae; format: in vivo; details: dose 0.5 kg/ha, surface covered by mines, 24H after application
Tuta absoluta [10] = test: Field trial against Tuta absoluta in Solanum lycopersicum; format: in vivo; details: 1,5 gr/L, % efficacy (Henderson & Tilton) on damaged leaflets, one value per plot (1-3)
Experimental: The biopesticide composition was tested in field trials against Tuta absoluta in Solanum lycopersicum to validate efficacy, parametrised by % efficacy (Henderson & Tilton) on damaged leaflets (50 random leaflets/Plot). 3 plots were treated, each plot has 10m^2. The plants were treated with biopesticide composition and positive control; commercial products based on emamectin for recommend doses in the label in 3 applications at interval of 7 days. Table 11. % Efficacy against Tuta absoluta in field trials

Grapholita molesta = test: Field trial against Grapholita molesta in Prunus persica; format: in vivo; details: 0,2cc/L, % efficacy (abbott) on fruit damage incidence, one value per plot (1-3)
Experimental: (§8) The biopesticide composition (table 2) was tested in field trials against Grapholita molesta in Prunus persica […] to validate efficacy, parametrised by % efficacy (abbott) on fruit damage incidence. 3 plots were treated, each plot has 4-6 trees with a sample size of 100-300 fruits/ plot. The trees were treated with biopesticide composition and positive control; commercial products based on chlorantraniliprole for recommend doses in the label in 2 applications at interval of 10 days. Table 9. % Efficacy against Grapholita molesta in field trials.

Cydia pomonella = test: Field trial against Cydia pomonella in Pyrus communis and Malus domestica; format: in vivo; details: 0,2cc/L, one value per plot (1-3)
Experimental: as §8
The same test was repeated in Pyrus communis and Malus domestica to validate efficacy against Cydia pomonella. Table 10. % Efficacy against Cydia pomonella in field trials

Compound: OCc1ccccc1 [Benzyl alcohol (BnOH), Benzyl alcohol]
- Contact mortality (%M) Bemisia tabaci (Bemisia tabaci): 49.8 ± 6.2 ^a %
- Contact mortality (%M) Myzus persicae (Myzus persicae): 19.8 ± 6.2 ^a %
- Contact mortality (%M) Frankliniella occidentalis [1]: 12.5 ± 7.8 ^a %
- Contact mortality (%M) Tuta absoluta (Tuta absoluta [2]): 29.6 ± 5.7 ^a %
- Contact mortality (%M) Tetranychus urticae (Tetranychus urticae): 33.4 ± 4.1 ^a %
- solubility in water [3]: 4 g/100 mL

Compound: CC(C)O [Isopropanol (IPN), Isopropanol]
- Contact mortality (%M) Bemisia tabaci (Bemisia tabaci): 0.0 ± 0.0 ^c %
- Contact mortality (%M) Myzus persicae (Myzus persicae): 0.0 ± 0.0 ^b %
- Contact mortality (%M) Frankliniella occidentalis [1]: 0.0 ± 0.0 ^b %
- Contact mortality (%M) Tuta absoluta (Tuta absoluta [2]): 11.4 ± 7.2 ^b %
- Contact mortality (%M) Tetranychus urticae (Tetranychus urticae): 0.0 ± 0.0 ^b %

Compound: O [Water]
- Contact mortality (%M) Bemisia tabaci (Bemisia tabaci; 1440 min): 0.0 ± 0.0 ^c %
- Contact mortality (%M) Myzus persicae (Myzus persicae; 1440 min): 0.0 ± 0.0 ^b %
- Contact mortality (%M) Frankliniella occidentalis ([1]; 1440 min): 0.0 ± 0.0 ^b %
- Contact mortality (%M) Tuta absoluta (Tuta absoluta [2]; 1440 min): 0.0 ± 0.0 ^c %
- Contact mortality (%M) Tetranychus urticae (Tetranychus urticae; 1440 min): 0.0 ± 0.0 ^b %

Compound: Emamectin
- Contact mortality (%M) [4]: 100.0 ± 0.0 ^(a) %
- Settling inhibition (%SI) [5]: 36.0 ± 5.8%
- Contact mortality (%M) [6]: 88.9 ± 2.0 ^(a) %
- Contact mortality (%M) [7]: 94.5 ± 1.9 ^(a) %
- Contact mortality in-leaf (%M) [8]: 80.3 ± 8.7 ^(a) %
- Contact mortality out-leaf (%M) [8]: 65.3 ± 3.8 ^(ab) %
- Feeding reduction (%FR) [9]: 59.1 ± 0.8 %
- % Efficacy against Tuta absoluta in field trials (Tuta absoluta [10]; 7 days after 1st application): 62% and 43% and 71%
- % Efficacy against Tuta absoluta in field trials (Tuta absoluta [10]; 7 days after 2nd application): 53% and 58%
- % Efficacy against Tuta absoluta in field trials (Tuta absoluta [10]; 7 days after 3rd application): 67% and 61% and 55%

Compound: CNC(=O)c1cc(Cl)cc(C)c1NC(=O)c1cc(Br)nn1-c1ncccc1Cl [Chlorantraniliprole]
- % Efficacy against Grapholita molesta in field trials (Grapholita molesta; 14 days after the last application): 58% and 63% and 42%
- % Efficacy against Grapholita molesta in field trials (Grapholita molesta; 21 days after the last application): 62% and 51% and 61%
- % Efficacy against Cydia pomonella in field trials (Cydia pomonella; 10 days after the last application): 59% and 62% and 75%
- % Efficacy against Cydia pomonella in field trials (Cydia pomonella; 20 days after the last application): 68% and 62% and 73%

Compound: CCO [Ethanol (EtOH), Ethanol]
- Contact mortality (%M) Bemisia tabaci (Bemisia tabaci): 23.5 ± 8.4 ^b %
- Contact mortality (%M) Myzus persicae (Myzus persicae): 16.7 ± 9.1 ^a %
- Contact mortality (%M) Frankliniella occidentalis [1]: 0.0 ± 0.0 ^b %
- Contact mortality (%M) Tuta absoluta (Tuta absoluta [2]): 0.0 ± 0.0 ^c %
- Contact mortality (%M) Tetranychus urticae (Tetranychus urticae): 0.0 ± 0.0 ^b %
